The values that follow come from patent US11760762B2, “Thienopyranones and furanopyranones as kinase, bromodomain, and checkpoint inhibitors” (SignalRx Pharmaceuticals, Inc., priority 2017, dated 2023).

One assay has as its system Huh7 2H cell line. Briefly: Huh7 2H cell viability. The settings on record: for pIC50: Homo sapiens, Huh-7, 2 h. The format is cell-based. As to the method:
(§1) Cells were seeded into 96-well plate at 1×10^4 cell per well in complete medium+10% FCS and incubated for 24 hours prior to the addition of compounds at concentrations ranging from 50 μM to 50 nM. Cell viability was quantitated 24 hours after the addition of compounds using AlamarBlue® viable cell detection reagent. IC50 curves were determined using Graphpad Prism software.
The procedures of example 6 were followed except using the Huh7 2H cell line.

A further assay relates to Hep3B. Briefly: Hepatocellular carcinoma cell viability, AlamarBlue. The settings on record: Homo sapiens, 24 hours, read-out: Hepatocarcinoma Cell Line IC50 Values Hep3B. The format is cell-based. On the procedure:
as §1
(Resazurin is reduced to fluorescent resorufin, in cell work by metabolically active cells.)

The next assay relates to HepG2. The assay is described as above. The format is cell-based. The note with it: Homo sapiens, 24 hours, read-out: Hepatocarcinoma Cell Line IC50 Values HepG2. As to the method:
as §1

Another assay concerns Huh7. The description is as above. The format is cell-based. The note with it: Homo sapiens, Huh-7; 24 hours; read-out: Hepatocarcinoma Cell Line IC50 Values Huh7. As to the method:
as §1

In the next assay the target is T1, CDK6 (Homo sapiens, UniProt Q00534).
T1 construct: Reaction Biology Corp., Malvern, PA (contract assay service)
The assay is described as follows: Cyclin dependent kinase inhibition (Reaction Biology Corp.). The format is biochemical. The settings on record: 10-point curve, grouped by potency. As to the method:
(§2) PI3K-alpha, PI3K-beta, PI3K-gamma, and PI3K-delta inhibition activity was determined by Thermo Fisher Scientific-Biosciences Life Sciences Solutions, Madison, WI The bromodomain protein inhibition (binding domain 1 and 2 of BRD4) was determined by Reaction Biology Corp., Malvern, PA The cyclin dependent kinase inhibition on proteins such as CDK2, CDK4, CDK6, and CDK9 was determined by Reaction Biology Corp., Malvern, PA.
(§3) The compounds of the invention were characterized by their ability to inhibit the target proteins using third party vendors offering such services. PI3K-alpha, PI3K-gamma, and PI3K-delta inhibition activity was determined by Thermo Fisher Scientific-Biosciences Life Sciences Solutions, Madison, WI. […] NI=no inhibition detected up to 50 μM or IC50 not reached at 50 μM. ND=not done.

Another assay concerns the target T2, CDK4 (Homo sapiens, UniProt P11802).
T2 construct: Reaction Biology Corp., Malvern, PA (contract assay service)
The description is as above. The format is biochemical. The note with it: 10-point curve, grouped by potency. As to the method:
as §2, §3

For another assay, the target named is T3, BRD4 binding domain 2 (Homo sapiens, UniProt O60885).
T3 construct: Reaction Biology Corp., Malvern, PA (contract assay service)
Briefly: Bromodomain protein inhibition (Reaction Biology Corp.). The settings on record: 10-point curve, grouped by potency; read-out: IC50 BRD4-2. As to the method:
as §2
(§4) The compounds of the invention were characterized by their ability to inhibit the target proteins using third party vendors offering such services. PI3K-alpha, PI3K-gamma, and PI3K-delta inhibition activity was determined by Thermo Fisher Scientific-Biosciences Life Sciences Solutions, Madison, WI. […] ND=not done.

Another assay has as its target T4, BRD4 binding domain 1 (Homo sapiens, UniProt O60885).
T4 construct: Reaction Biology Corp., Malvern, PA (contract assay service)
Described as above. The note with it: 10-point curve, grouped by potency; for pIC50: read-out: IC50 BRD4-1. As to the method:
as §2, §4

In another assay the target is T5, PI3K-alpha (Homo sapiens, UniProt P42336).
T5 construct: Thermo Fisher Scientific-Biosciences Life Sciences Solutions, Madison, WI (contract assay service)
Briefly: PI3K inhibition (Thermo Fisher Scientific). The format is biochemical. The settings on record: 10-point curve, grouped by potency; read-out: IC50 P13K α.

For the next assay, the target named is T6, PI3K-delta (Homo sapiens, UniProt O00329).
T6 construct: Thermo Fisher Scientific-Biosciences Life Sciences Solutions, Madison, WI (contract assay service)
Briefly: PI3K inhibition (Thermo Fisher Scientific). The settings on record: 10-point curve, grouped by potency; read-out: IC50 P13K δ. The format is biochemical. As to the method:
as §2, §3

The target of a further assay is T7, PI3K-gamma (Homo sapiens, UniProt P48736).
T7 construct: Thermo Fisher Scientific-Biosciences Life Sciences Solutions, Madison, WI (contract assay service)
The assay is described as follows: PI3K inhibition (Thermo Fisher Scientific). The format is biochemical. The note with it: 10-point curve, grouped by potency; read-out: IC50 P13K γ. On the procedure: as §2, §3

For the next assay, the system named is PI3 kinases. The note with it: C. J. Vlahos et al., J. Biol. Chem. 1994; cited from earlier work.
Another assay deals with Granta. Briefly: Mantle cell lymphoma cell viability, AlamarBlue. The format is cell-based. The settings on record: 48 hours; read-out: Mantle Cell Line IC50 Values Granta. As to the method: (§5) Mantle cell lymphoma cell lines Granta, Mino and Jeko-1 were seeded at a density of 2500 cells/0.1 mL per well in a 96-well plate. Compounds 1 or Palbociclib were added post-plating at 50 μM-50 nM concentrations for 48 hours followed by addition of AlamarBlue® and incubation of plates at 37° C. in 5% CO2 for 6 hours. Fluorescence signals were read as emission at 590 nm after excitation at 560 nm. IC50 for each cell line was determined using Graphpad Prism software module.

In another assay the test system is Mino. Briefly: Mantle cell lymphoma cell viability, AlamarBlue. The format is cell-based. The note with it: Homo sapiens, MINO; 48 hours; read-out: Mantle Cell Line IC50 Values Mino. As to the method:
as §5

A further assay concerns Jeko-1. The assay is described as follows: Mantle cell lymphoma cell viability, AlamarBlue. The format is cell-based. The settings on record: Homo sapiens, JeKo-1; 48 hours; read-out: Mantle Cell Line IC50 Values Jeko-1. As to the method:
as §5

pIC50: −log10 of the molar value. Counter-ions that a name gives are not always drawn.

T1 sequence (Q00534 whole entry): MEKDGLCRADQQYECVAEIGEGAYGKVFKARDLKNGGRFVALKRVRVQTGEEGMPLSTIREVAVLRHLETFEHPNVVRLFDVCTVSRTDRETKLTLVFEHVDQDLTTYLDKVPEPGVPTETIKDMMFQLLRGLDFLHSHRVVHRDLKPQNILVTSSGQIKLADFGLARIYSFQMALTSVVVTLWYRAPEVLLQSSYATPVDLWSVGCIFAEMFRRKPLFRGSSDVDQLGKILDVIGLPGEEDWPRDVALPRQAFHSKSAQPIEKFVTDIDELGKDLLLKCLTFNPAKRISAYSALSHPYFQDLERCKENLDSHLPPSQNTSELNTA
T1 sequence (P24385 whole entry partner): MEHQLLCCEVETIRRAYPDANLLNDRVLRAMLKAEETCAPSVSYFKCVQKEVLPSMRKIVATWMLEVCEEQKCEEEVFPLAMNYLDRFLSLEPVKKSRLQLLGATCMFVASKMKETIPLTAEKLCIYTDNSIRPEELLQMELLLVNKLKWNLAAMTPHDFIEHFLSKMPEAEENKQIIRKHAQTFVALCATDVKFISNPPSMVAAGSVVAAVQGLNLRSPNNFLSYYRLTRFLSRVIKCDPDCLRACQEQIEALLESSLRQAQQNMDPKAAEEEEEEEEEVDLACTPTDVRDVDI
T5 sequence (P42336 whole entry): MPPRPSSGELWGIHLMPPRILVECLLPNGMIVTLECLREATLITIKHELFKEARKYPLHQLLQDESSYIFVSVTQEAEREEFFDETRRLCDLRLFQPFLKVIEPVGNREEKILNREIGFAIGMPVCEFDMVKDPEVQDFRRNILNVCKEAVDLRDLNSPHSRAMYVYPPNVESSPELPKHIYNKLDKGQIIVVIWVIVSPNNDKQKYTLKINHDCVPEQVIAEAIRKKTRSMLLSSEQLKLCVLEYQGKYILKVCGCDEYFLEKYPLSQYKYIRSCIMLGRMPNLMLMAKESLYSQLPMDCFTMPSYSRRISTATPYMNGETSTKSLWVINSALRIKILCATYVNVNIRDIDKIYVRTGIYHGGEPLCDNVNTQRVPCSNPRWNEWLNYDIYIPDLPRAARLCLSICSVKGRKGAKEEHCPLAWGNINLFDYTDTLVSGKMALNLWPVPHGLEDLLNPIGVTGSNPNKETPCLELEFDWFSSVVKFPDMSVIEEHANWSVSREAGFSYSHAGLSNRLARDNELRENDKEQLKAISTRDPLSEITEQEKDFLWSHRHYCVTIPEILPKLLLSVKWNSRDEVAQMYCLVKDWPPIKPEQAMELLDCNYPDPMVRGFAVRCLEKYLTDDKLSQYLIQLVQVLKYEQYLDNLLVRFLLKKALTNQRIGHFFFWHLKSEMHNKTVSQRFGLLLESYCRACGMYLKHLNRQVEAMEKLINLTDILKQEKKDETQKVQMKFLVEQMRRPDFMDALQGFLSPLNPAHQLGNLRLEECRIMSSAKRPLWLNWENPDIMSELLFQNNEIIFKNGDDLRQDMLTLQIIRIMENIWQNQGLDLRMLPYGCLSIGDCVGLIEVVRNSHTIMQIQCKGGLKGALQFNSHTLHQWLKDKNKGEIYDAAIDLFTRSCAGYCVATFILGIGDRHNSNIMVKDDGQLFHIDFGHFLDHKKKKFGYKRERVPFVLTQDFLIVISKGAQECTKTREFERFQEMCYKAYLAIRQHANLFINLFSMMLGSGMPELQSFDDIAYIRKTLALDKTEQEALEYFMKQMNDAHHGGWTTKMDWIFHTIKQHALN
T5 sequence (P27986 whole entry partner): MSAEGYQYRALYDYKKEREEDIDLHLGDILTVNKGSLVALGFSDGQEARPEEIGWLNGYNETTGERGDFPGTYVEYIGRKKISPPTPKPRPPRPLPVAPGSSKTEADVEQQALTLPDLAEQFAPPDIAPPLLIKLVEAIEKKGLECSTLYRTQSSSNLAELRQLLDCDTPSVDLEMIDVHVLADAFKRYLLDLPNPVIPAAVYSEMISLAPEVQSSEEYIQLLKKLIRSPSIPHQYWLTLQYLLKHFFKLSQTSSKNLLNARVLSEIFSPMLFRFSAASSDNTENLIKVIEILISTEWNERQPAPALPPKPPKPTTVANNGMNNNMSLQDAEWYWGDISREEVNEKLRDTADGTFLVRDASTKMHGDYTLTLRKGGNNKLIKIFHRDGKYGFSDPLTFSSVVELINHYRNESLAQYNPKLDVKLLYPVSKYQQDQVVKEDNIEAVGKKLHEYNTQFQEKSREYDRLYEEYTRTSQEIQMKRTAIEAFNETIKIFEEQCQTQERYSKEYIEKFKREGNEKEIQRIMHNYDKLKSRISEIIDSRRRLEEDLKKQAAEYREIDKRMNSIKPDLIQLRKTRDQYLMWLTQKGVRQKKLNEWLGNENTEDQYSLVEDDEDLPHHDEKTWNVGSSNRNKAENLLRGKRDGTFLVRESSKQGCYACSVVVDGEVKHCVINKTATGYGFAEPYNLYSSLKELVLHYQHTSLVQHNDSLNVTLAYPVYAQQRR
T7 sequence (P48736 whole entry): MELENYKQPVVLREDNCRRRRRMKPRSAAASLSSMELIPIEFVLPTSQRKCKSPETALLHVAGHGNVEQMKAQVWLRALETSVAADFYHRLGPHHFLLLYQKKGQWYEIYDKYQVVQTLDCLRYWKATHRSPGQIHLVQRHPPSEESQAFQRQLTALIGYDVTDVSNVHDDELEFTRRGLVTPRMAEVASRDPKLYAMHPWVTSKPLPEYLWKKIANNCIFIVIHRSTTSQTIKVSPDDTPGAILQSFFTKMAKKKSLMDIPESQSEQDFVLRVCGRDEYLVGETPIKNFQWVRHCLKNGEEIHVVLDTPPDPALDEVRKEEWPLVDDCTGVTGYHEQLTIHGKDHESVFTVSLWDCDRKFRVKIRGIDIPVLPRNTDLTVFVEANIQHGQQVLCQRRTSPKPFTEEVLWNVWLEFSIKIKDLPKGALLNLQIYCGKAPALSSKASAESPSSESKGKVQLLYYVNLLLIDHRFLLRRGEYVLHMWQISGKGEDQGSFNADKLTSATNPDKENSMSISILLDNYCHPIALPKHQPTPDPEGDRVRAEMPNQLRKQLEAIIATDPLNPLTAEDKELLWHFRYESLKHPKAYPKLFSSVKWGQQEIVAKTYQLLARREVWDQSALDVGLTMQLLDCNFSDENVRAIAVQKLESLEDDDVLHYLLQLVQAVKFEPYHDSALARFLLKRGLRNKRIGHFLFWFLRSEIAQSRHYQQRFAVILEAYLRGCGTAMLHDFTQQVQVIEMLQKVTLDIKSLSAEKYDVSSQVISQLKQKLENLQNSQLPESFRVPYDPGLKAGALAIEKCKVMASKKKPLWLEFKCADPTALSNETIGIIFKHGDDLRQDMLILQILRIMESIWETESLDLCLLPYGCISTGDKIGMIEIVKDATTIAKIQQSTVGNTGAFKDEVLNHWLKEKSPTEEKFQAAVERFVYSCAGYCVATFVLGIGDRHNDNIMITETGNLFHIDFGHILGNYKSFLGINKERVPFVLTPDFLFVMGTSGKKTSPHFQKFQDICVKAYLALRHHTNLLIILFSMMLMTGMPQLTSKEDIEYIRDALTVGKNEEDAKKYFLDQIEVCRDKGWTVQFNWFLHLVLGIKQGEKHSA
T6 sequence (O00329 whole entry): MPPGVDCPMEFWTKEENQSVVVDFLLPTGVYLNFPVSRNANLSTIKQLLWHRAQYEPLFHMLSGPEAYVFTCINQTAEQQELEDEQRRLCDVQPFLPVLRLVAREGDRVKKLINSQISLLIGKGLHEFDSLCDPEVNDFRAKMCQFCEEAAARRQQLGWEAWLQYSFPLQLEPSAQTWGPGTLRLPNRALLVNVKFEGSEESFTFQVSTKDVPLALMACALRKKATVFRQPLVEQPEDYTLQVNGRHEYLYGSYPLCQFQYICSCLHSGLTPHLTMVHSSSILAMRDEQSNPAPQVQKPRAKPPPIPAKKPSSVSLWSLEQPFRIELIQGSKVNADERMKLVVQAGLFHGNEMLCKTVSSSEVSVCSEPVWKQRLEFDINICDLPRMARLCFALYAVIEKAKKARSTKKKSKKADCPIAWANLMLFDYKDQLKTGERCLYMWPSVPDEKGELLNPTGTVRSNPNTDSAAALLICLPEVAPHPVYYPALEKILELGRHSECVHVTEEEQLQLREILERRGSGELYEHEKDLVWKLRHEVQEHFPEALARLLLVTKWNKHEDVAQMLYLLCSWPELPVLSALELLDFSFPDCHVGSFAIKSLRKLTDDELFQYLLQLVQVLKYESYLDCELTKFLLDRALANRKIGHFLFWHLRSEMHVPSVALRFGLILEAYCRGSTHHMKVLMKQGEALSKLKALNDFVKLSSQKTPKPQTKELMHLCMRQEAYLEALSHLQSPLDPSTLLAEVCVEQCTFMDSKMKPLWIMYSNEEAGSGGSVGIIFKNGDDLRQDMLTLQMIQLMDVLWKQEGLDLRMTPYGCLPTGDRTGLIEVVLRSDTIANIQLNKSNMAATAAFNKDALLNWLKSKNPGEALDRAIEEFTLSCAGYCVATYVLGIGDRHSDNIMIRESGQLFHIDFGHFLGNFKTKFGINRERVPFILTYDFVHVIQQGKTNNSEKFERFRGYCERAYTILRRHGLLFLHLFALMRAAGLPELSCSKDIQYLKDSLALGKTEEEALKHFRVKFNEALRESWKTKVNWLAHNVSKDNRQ
T6 sequence (P27986 whole entry partner): as the sequence (P27986 whole entry partner) above
T2 sequence (P11802 whole entry): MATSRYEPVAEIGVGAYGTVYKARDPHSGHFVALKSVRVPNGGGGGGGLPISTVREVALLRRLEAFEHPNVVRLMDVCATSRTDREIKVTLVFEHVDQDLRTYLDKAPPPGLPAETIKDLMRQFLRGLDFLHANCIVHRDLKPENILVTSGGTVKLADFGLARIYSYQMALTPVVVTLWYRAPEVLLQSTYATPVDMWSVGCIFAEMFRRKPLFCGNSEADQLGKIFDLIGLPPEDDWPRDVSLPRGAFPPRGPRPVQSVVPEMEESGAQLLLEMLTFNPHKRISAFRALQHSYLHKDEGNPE
T2 sequence (P24385 whole entry partner): as the sequence (P24385 whole entry partner) above
Procedure for PI3K-alpha: PI3K-alpha, PI3K-gamma, and PI3K-delta inhibition activity was determined by Thermo Fisher Scientific-Biosciences Life Sciences Solutions, Madison, WI. The bromodomain protein inhibition (binding domain 1 and 2 of BRD4 was determined by Reaction Biology Corp., Malvern, PA The cyclin dependent kinase inhibition on CDK4 and CDK6 was determined by Reaction Biology Corp., Malvern, PA Additional information on each of the above testing procedures and services is available at each company's website on the internet. The IC50 data presented below in Table 11 is calculated from a 10-point curve and is expressed in nanomolar concentration (nM) and grouped according to potency. Where multiple values have been obtained the range from lowest to highest values is presented. NI=no inhibition detected up to 50 μM or IC50 not reached at 50 μM. ND=not done.

Turning to `O=c1cc(N2CCOCC2)oc2c(-c3ccc4c(c3)OCCO4)csc12` [Compound 0, reference compound], the pIC50 is 5.23 to 5.53 in the assay on Huh7 2H cell line, 5.18 in the assay on Hep3B, 5.30 in the assay with HepG2 and 4.84 with Huh7.

Regarding `CN(C)C(=O)c1cc2cnc(Nc3ccc(-c4csc5c(=O)cc(N6CCOCC6)oc45)cn3)nc2n1C1CCCC1` [Compound 3, {1-Cyclopentyl-6-[5-(5-morpholino-7-oxo-4-oxa-1-thia-3-indenyl)-2-pyridylamino]-1,5,7-triaza-1H-inden-2-yl}(dimethylamino)formaldehyde], the pIC50 is over 7.00 against CDK6; over 7.00 at CDK4; 6.00 to 7.00 at BRD4 binding domain 2; 6.00 to 7.00 on PI3K-alpha; over 7.00 on PI3K-delta; 6.00 to 7.00 on PI3K-gamma. Moreover, the “IC50 BRD4-1” value on BRD4 binding domain 1 is reported as “* to **”.

As for `COC(=O)c1cc(-c2csc3c(=O)cc(N4CCOCC4)oc23)ccc1Nc1ncc2cc(C(=O)N(C)C)n(C3CCCC3)c2n1` [Compound 4, Methyl 2-[1-cyclopentyl-2-(dimethylamino)carbonyl-1,5,7-triaza-1H-inden-6-ylamino]-5-(5-morpholino-7-oxo-4-oxa-1-thia-3-indenyl)benzoate], the pIC50 against CDK6 was under 4.30; at CDK4, under 4.30; at BRD4 binding domain 2, 5.30 to 6.00; at BRD4 binding domain 1 it was 6.00 to 7.00; on PI3K-alpha, 6.00 to 7.00; on PI3K-delta, 6.00 to 7.00. For the same molecule, the pIC50 at PI3K-gamma was 5.30 to 6.00.

As to `Cc1nc2c(F)cc(-c3nc(Nc4ccc(-c5csc6c(=O)cc(N7CCOCC7)oc56)cc4)ncc3F)cc2n1C(C)C` [Compound 5, 3-{p-[5-Fluoro-4-(7-fluoro-3-isopropyl-2-methyl-1,3-diaza-3H-inden-5-yl)-2-pyrimidinylamino]phenyl}-5-morpholino-4-oxa-1-thia-7-indenone], the pIC50 at CDK6 is over 7.00; against CDK4, over 7.00; on BRD4 binding domain 2 it was under 4.30; on BRD4 binding domain 1, under 4.30; at PI3K-alpha, 4.30 to 5.30; at PI3K-delta, 5.30 to 6.00. For the same molecule, the pIC50 on PI3K-gamma was under 4.30.

Regarding `CC(=O)c1c(C)c2cnc(Nc3ccc(-c4csc5c(=O)cc(N6CCOCC6)oc45)cc3)nc2n(C2CCCC2)c1=O` [Compound 6, 1-{8-cyclopentyl-5-methyl-2-[p-(5-morpholino-7-oxo-4-oxa-1-thia-3-indenyl)phenylamino]-7-oxo-1,3,8-triaza-8H-naphth-6-yl}-1-ethanone], the pIC50 on CDK6 is over 7.00; on CDK4, over 7.00; at BRD4 binding domain 2 it was 6.00 to 7.00; at BRD4 binding domain 1, 6.00 to 7.00; at PI3K-alpha, over 7.00; on PI3K-delta, over 7.00. Moreover, the pIC50 at PI3K-gamma is 5.30 to 6.00.

Turning to `COC(=O)c1cc(Nc2ncc3cc(C(=O)N(C)C)n(C4CCCC4)c3n2)ccc1-c1csc2c(=O)cc(N3CCOCC3)oc12` [Compound 7, Methyl 5-[1-cyclopentyl-2-(dimethylamino)carbonyl-1,5,7-triaza-1H-inden-6-ylamino]-2-(5-morpholino-7-oxo-4-oxa-1-thia-3-indenyl)benzoate], the pIC50 on CDK6 is over 7.00; against CDK4, over 7.00; at BRD4 binding domain 2 it was 6.00 to 7.00; on BRD4 binding domain 1 it was 6.00 to 7.00; on PI3K-alpha, 6.00 to 7.00; on PI3K-delta it was over 7.00. The negative-log IC50 (pIC50) at PI3K-gamma was 5.30 to 6.00.

`CN(C)C(=O)c1cc2cnc(Nc3ccc(-c4csc5c(=O)cc(N6CCOCC6)oc45)c(C(=O)O)c3)nc2n1C1CCCC1` [Compound 10, 5-[1-Cyclopentyl-2-(dimethylamino)carbonyl-1,5,7-triaza-1H-inden-6-ylamino]-2-(5-morpholino-7-oxo-4-oxa-1-thia-3-indenyl)benzoic acid]: the pIC50 is 4.30 to 5.30 at CDK6; 4.30 to 5.30 against CDK4; 6.00 to 7.00 on BRD4 binding domain 2; over 7.00 at BRD4 binding domain 1; over 7.00 at PI3K-alpha; 6.00 to 7.00 on PI3K-delta. In addition, the pIC50 on PI3K-gamma was 6.00 to 7.00.

Turning to `CN(C)C(=O)c1cc2cnc(Nc3ccc(-c4csc5c(=S)cc(N6CCOCC6)oc45)cc3)nc2n1C1CCCC1` [Compound 11, {1-Cyclopentyl-6-[p-(5-morpholino-7-thioxo-4-oxa-1-thia-3-indenyl)phenylamino]-1,5,7-triaza-1H-inden-2-yl}(dimethylamino)formaldehyde], the pIC50 against CDK6 is over 7.00; at CDK4 it was over 7.00; at BRD4 binding domain 2, 5.30 to 6.00; on BRD4 binding domain 1 it was 5.30 to 6.00; at PI3K-alpha it was 6.00 to 7.00; at PI3K-delta, 6.00 to 7.00. For the same molecule, on PI3K-gamma, the pIC50 was 4.30 to 5.30.

In the case of `CN(C)C(=S)c1cc2cnc(Nc3ccc(-c4csc5c(=S)cc(N6CCOCC6)oc45)cc3)nc2n1C1CCCC1` [Compound 12, 7-Cyclopentyl-N,N-dimethyl-2-((4-(5-morpholino-7-thioxo-7H-thieno[3,2-b]pyran-3-yl)phenyl)amino)-7H-pyrrolo[2,3-d]pyrimidine-6-carbothioamide], the negative-log IC50 (pIC50) against CDK6 was 6.00 to 7.00; at CDK4, 6.00 to 7.00; on BRD4 binding domain 2, 4.30 to 5.30; on BRD4 binding domain 1, 4.30 to 5.30; at PI3K-alpha, 6.00 to 7.00; on PI3K-delta it was 6.00 to 7.00. Moreover, the pIC50 at PI3K-gamma is 4.30 to 5.30.

On to `CN(C)C(=O)c1cc2cnc(Nc3ccc(-c4csc5c(=O)cc(N6CCN(C(=O)OC(C)(C)C)CC6)oc45)cc3)nc2n1C1CCCC1` [Compound 18], for which the pIC50 at CDK6 was over 7.00; against CDK4, over 7.00; on BRD4 binding domain 2, 5.30 to 6.00; on BRD4 binding domain 1, 6.00 to 7.00; at PI3K-alpha, 4.30 to 5.30; on PI3K-delta, 6.00 to 7.00. Moreover, the pIC50 at PI3K-gamma was 5.30 to 6.00.

Turning to `O=c1cc(N2CCOCC2)oc2c(-c3ccccc3)cccc12` [LY294002, 2-(4-morpholinyl)-8-phenyl-4H-1-benzopyran-4-one], the pIC50 with PI3 kinases is 5.85.

Regarding `CC(=O)c1c(C)c2cnc(Nc3ccc(N4CCNCC4)cn3)nc2n(C2CCCC2)c1=O` [Palbociclib, reference compound], the pIC50 was 4.99 with Granta, 4.32 in the assay on Mino, 5.13 in the assay on Jeko-1 and 5.04 with Huh7 2H cell line. The “times less potent than Compound 1, Huh7 2H” value in the assay on Huh7 2H cell line (ratio of IC50 values) is listed as “about 18 times”.

Turning to `CN(C)C(=O)c1cc2cnc(Nc3ccc(-c4csc5c(=O)cc(N6CCNCC6)oc45)cc3)nc2n1C1CCCC1` [compound 2, (1-Cyclopentyl-6-{p-[7-oxo-5-(1-piperazinyl)-4-oxa-1-thia-3-indenyl]phenylamino}-1,5,7-triaza-1H-inden-2-yl)(dimethylamino)formaldehyde hydrochloride], the pIC50 against CDK6 is over 7.00; against CDK4, over 7.00; at BRD4 binding domain 2 it was 6.00 to 7.00; at BRD4 binding domain 1, 6.00 to 7.00; on PI3K-alpha, 4.30 to 5.30; at PI3K-delta, 4.30 to 5.30. The pIC50 at PI3K-gamma was 4.30 to 5.30.

The term pIC50 denotes the IC50 on a negative log10 scale, so that one unit is a factor of ten.
